The assay concerns the target SARS2 coronavirus 3CL protease (Severe acute respiratory syndrome coronavirus 2 (2019-nCoV) (SARS-CoV-2), UniProt P0DTD1). Kind of assay: SARS2 Coronavirus 3CL Protease Assay (FRET). Format: biochemical. As to conditions: SARS2 3CLPro FRET assay; 5 nM enzyme, 30 min pre-incubation with compound, 15 uM peptide substrate, 4 h room temperature.

Protocol: The enzymatic activity of SARS2 coronavirus 3CL protease was determined in a FRET (fluorescence resonance energy transfer)-based assay measuring the cleavage of a peptide substrate by recombinantly expressed and purified enzyme. Cleavage of the peptide SEQ ID NO:1 (CPC Scientific) by SARS2 3CL protease was measured in reaction buffer (50 mM Hepes pH 7.5, 0.01% Triton X-100, 0.01% BSA, 2 mM DTT). SARS2 3CL protease (5 nM final concentration) was pre-incubated with compound for 30 minutes before reaction initiation with peptide substrate (15 uM final concentration). Room temperature reactions (4 h) were quenched by addition of a high dose of inhibitor and read on an appropriate plate reader (excitation wavelength=495 nm, emission wavelength=520 nm). Data were analyzed by a standard 4 parameter fit to determine IC50 values.

Turning to `COC(=O)N[C@H](C(=O)N1CC(C2CCC2)C[C@H]1C(=O)N[C@@H](CCC(C)(F)F)C(=O)C(=O)NC1CC1)C(C)(C)C` (single isomer, unassigned) [Example 1, Methyl ((S)-1-((2S,4(S or R))-4-cyclobutyl-2-(((S)-1-(cyclopropylamino)-6,6-difluoro-1,2-dioxoheptan-3-yl)carbamoyl)pyrrolidin-1-yl)-3,3-dimethyl-1-oxobutan-2-yl)carbamate], the IC50 was determined as 28 nM.
For `COC(=O)N[C@H](C(=O)N1CC(C23CC(C2)C3)C[C@H]1C(=O)N[C@@H](CCC(C)(F)F)C(=O)C(=O)NC1CC1)C(C)(C)C` (single isomer, unassigned) [Example 2, Methyl ((S)-1-((2S,4(R or S))-4-(bicyclo[1.1.1]pentan-1-yl)-2-(((S)-1-(cyclopropylamino)-6,6-difluoro-1,2-dioxoheptan-3-yl)carbamoyl)pyrrolidin-1-yl)-3,3-dimethyl-1-oxobutan-2-yl)carbamate], the IC50 turned out to be 29 nM.
In the case of `COC(=O)N[C@H](C(=O)N1CC(C2CCCC2)C[C@H]1C(=O)N[C@@H](CCC(C)(F)F)C(=O)C(=O)NC1CC1)C(C)(C)C` (single isomer, unassigned) [Example 3, Methyl ((S)-1-((2S,4(R or S))-4-cyclopentyl-2-(((S)-1-(cyclopropylamino)-6,6-difluoro-1,2-dioxoheptan-3-yl)carbamoyl)pyrrolidin-1-yl)-3,3-dimethyl-1-oxobutan-2-yl)carbamate] it was 58 nM; in that of `COCC(NC(=O)OC)C(=O)N1CC2(CCCCC2)C[C@H]1C(=O)N[C@@H](CCC(C)(F)F)C(=O)C(=O)NC1CC1` (single isomer, unassigned) [Example 11, Methyl ((R or S)-1-((S)-3-(((S)-1-(cyclopropylamino)-6,6-difluoro-1,2-dioxoheptan-3-yl)carbamoyl)-2-azaspiro[4.5]decan-2-yl)-3-methoxy-1-oxopropan-2-yl)carbamate], 40 nM.
In the case of `COC(=O)N[C@H](C(=O)N1CCC(C2CC2)C1C(=O)N[C@@H](CCC(C)(F)F)C(=O)C(=O)NC1CC1)C(C)(C)C` (single isomer, unassigned) [Example 23, Methyl ((S)-1-((2(S or R),3(R or S))-3-cyclopropyl-2-(((S)-1-(cyclopropylamino)-6,6-difluoro-1,2-dioxoheptan-3-yl)carbamoyl)pyrrolidin-1-yl)-3,3-dimethyl-1-oxobutan-2-yl)carbamate] it was 10 nM.
As for `COC(=O)N[C@H](C(=O)N1CC2(CCOCC2)CC1C(=O)N[C@@H](CCC(C)(F)F)C(=O)C(=O)NC1CC1)C(C)(C)C` (single isomer, unassigned) [Example 28, Methyl ((S)-1-((R or S)-(3-(((S)-1-(cyclopropylamino)-6,6-difluoro-1,2-dioxoheptan-3-yl)carbamoyl)-8-oxa-2-azaspiro[4.5]decan-2-yl)-3,3-dimethyl-1-oxobutan-2-yl)carbamate], the IC50 came to 297 nM.
In the case of `COC(=O)N[C@H](C(=O)N1CC(C)CCC1C(=O)N[C@@H](CCC(C)(F)F)C(=O)C(=O)NC1CC1)C(C)(C)C` (single isomer, unassigned) [Example 30, Methyl ((S)-1-(2(R or S), 5(R or S)-(((S)-1-(cyclopropylamino)-6,6-difluoro-1,2-dioxoheptan-3-yl)carbamoyl)-5-methylpiperidin-1-yl)-3,3-dimethyl-1-oxobutan-2-yl)carbamate] it was 40 nM; in that of `COC(=O)N[C@H](C(=O)N1CC2(C[C@H]1C(=O)N[C@@H](CCC(C)(F)F)C(=O)C(=O)NC1CC1)CC2(F)F)C(C)(C)C` (single isomer, unassigned) [Example 32, Methyl ((S)-1-((3(R or S),6S)-6-(((S)-1-(cyclopropylamino)-6,6-difluoro-1,2-dioxoheptan-3-yl)carbamoyl)-1,1-difluoro-5-azaspiro[2.4]heptan-5-yl)-3,3-dimethyl-1-oxobutan-2-yl)carbamate], 15 nM.
With `COC(=O)N[C@H](C(=O)N1CCC2(CCCC2)CC1C(=O)N[C@@H](CCC(C)(F)F)C(=O)C(=O)NC1CC1)C(C)(C)C` (single isomer, unassigned) [Example 34, Methyl ((S)-1-(R or S)-(7-(((S)-1-(cyclopropylamino)-6,6-difluoro-1,2-dioxoheptan-3-yl)carbamoyl)-8-azaspiro[4.5]decan-8-yl)-3,3-dimethyl-1-oxobutan-2-yl)carbamateazaspiro[4.5]decan-8-yl)-3,3-dimethyl-1-oxobutan-2-yl)carbamate] the figure was 7.4 nM; with `COC(=O)N[C@H](C(=O)N1CCC(C)(C)CC1C(=O)N[C@@H](CCC(C)(F)F)C(=O)C(=O)NC1CC1)C(C)(C)C` (single isomer, unassigned) [Example 37, Methyl ((S)-1-((R or S)-(2-(((S)-1-(cyclopropylamino)-6,6-difluoro-1,2-dioxoheptan-3-yl)carbamoyl)-4,4-dimethylpiperidin-1-yl)-3,3-dimethyl-1-oxobutan-2-yl)carbamate], 9.2 nM.
With `COC(=O)N[C@H](C(=O)N1CCC2(CCC2)CC1C(=O)N[C@@H](CCC(C)(F)F)C(=O)C(=O)NC1CC1)C(C)(C)C` (single isomer, unassigned) [Example 41, Methyl ((S)-1-((R or S)-(6-(((S)-1-(cyclopropylamino)-6,6-difluoro-1,2-dioxoheptan-3-yl)carbamoyl)-7-azaspiro[3.5]nonan-7-yl)-3,3-dimethyl-1-oxobutan-2-yl)carbamate], the IC50 amounted to 13 nM.
With `COC(=O)N[C@H](C(=O)N1CC2CCC2C1C(=O)N[C@@H](CCC(C)(F)F)C(=O)C(=O)NC1CC1)C(C)(C)C` (single isomer, unassigned) [Example 43, Methyl ((S)-1-((1(R or S), 2(R or S),5(R or S))-(2-(((S)-1-(cyclopropylamino)-6,6-difluoro-1,2-dioxoheptan-3-yl)carbamoyl)-3-azabicyclo[3.2.0]heptan-3-yl)-3,3-dimethyl-1-oxobutan-2-yl)carbamate] the figure was 22 nM.
With `CNC(=O)C(=O)[C@H](CCC(C)(F)F)NC(=O)C1CC2(CCC2)CN1C(=O)[C@@H](NC(=O)OC)C(C)(C)C` (single isomer, unassigned) [Example 44, Methyl ((S)-1-((R or S)-7-(((S)-6,6-difluoro-1-(methylamino)-1,2-dioxoheptan-3-yl)carbamoyl)-6-azaspiro[3.4]octan-6-yl)-3,3-dimethyl-1-oxobutan-2-yl)carbamate] the figure was 27 nM.
With `COC(=O)N[C@H](C(=O)N1CCC(F)(F)CC1C(=O)N[C@@H](CCC(C)(F)F)C(=O)C(=O)NC1CC1)C(C)(C)C` (single isomer, unassigned) [Example 45, Methyl ((S)-1-(R or S)-(2-(((S)-1-(cyclopropylamino)-6,6-difluoro-1,2-dioxoheptan-3-yl)carbamoyl)-4,4-difluoropiperidin-1-yl)-3,3-dimethyl-1-oxobutan-2-yl)carbamate] the figure was 34 nM; with `COC(=O)N[C@H](C(=O)N1CC2(CCC2)CC1C(=O)N[C@@H](CCC(C)(F)F)C(=O)C(=O)NC1CC1)C(C)(C)C` (single isomer, unassigned) [Example 47, Methyl ((S)-1-(R or S)-7-(((S)-1-(cyclopropylamino)-6,6-difluoro-1,2-dioxoheptan-3-yl)carbamoyl)-6-azaspiro[3.4]octan-6-yl)-3,3-dimethyl-1-oxobutan-2-yl)carbamate], 38 nM.
